The values that follow come from paper PMC1977926, “Human pancreatic cancer cell lines do not express receptors for somatostatin” (British Journal of Cancer, 1992).

Assay [1] deals with somatostatin receptors (MiaPaCa-2 membranes). The experiment in a line: Displacement binding, 125I-SS, MiaPaCa-2 membranes. Set-up: species or system human. Particulars: 125I-SS 0.5 nM, unlabelled RC-160 10-6 to 10-11 M, 1 h at 30 C. An excerpt:
(§1) Br. J. Cancer (1992), 66, 483 487 ? […] Somatostatin (SS) is a tetradecapeptide widely distributed throughout the body, being found in high concentrations in the brain, stomach, intestine and pancreas (Reichlin, 1983). Somatostatin exerts inhibitory actions on the cellular func- tions within a variety of tissues including secretion and growth (Konturek et al., 1988; Meyers & Coy, 1980; Schally, 1988). […] It has therefore been proposed that somatostatin may be capable of inhibiting pancreatic tumour growth indirectly via the suppression of secretion of pancreatic trophic hor- mones and/or by direct effects on the tumour itself (Schally et al., 1988; Liebow et al., 1989). […] For somatostatin to impair directly the growth of pancreatic cancer the cells should therefore express receptors for the peptide. The aim of these study was to determine the somatostatin receptor status of two human (MiaPaCa-2 & Panc-1) and a rat (AR42J) pancreatic cancer cell lines. […] DNA synthesis was assessed for the final 6 h by adding 0.5 liCi 3H-thymi- dine/well. […] Scin- tillation fluid was added to individual filter discs and the cell associated radioactivity counted in a beta counter (Packard 1900CA Tricarb). […] The protein content of the suspension was determined using a bicinchoninic acid kit (Pierce, Rockford, USA).

In assay [2] the test system is somatostatin receptors (Panc-1 membranes). The experiment in a line: Displacement binding, 125I-SS, Panc-1 membranes. Further details: species or system human. The settings on record: 125I-SS 0.5 nM, unlabelled RC-160 10-6 to 10-11 M, 1 h at 30 C.
Text: as §1

For assay [3], the target named is T1, somatostatin receptors (AR42J membranes) (Rattus norvegicus, UniProt P30680).
T1 construct: endogenous in cells; host or cells: AR42J rat pancreatic acinar tumour cell line (membrane preparation)
T1 sequence (P30680 whole entry): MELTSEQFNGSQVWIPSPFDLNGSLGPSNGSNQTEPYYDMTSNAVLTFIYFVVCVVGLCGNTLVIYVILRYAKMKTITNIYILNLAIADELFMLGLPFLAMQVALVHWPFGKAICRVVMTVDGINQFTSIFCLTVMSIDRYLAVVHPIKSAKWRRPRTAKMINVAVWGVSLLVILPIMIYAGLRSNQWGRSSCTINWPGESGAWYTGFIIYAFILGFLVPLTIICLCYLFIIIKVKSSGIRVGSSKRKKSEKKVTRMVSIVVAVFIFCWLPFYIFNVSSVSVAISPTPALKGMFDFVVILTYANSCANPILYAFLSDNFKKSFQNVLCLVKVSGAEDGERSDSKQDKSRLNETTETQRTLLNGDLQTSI
As to the kind of experiment: Saturation binding, 125I-SS, AR42J membranes. The settings on record: 125I-SS 0.05-1 nM, 2 h at 30 C, single class of high affinity binding sites (abstract).
Text: as §1

The target in assay [4] is T1, somatostatin receptors (AR42J membranes). As to the kind of experiment: Displacement binding, 125I-SS, AR42J membranes. The settings on record: 125I-SS 0.5 nM, 1 h at 30 C.
Text: as §1

The subject of assay [5] is MiaPaCa-2 human ductal pancreatic carcinoma cell line. The experiment in a line: Proliferation of MiaPaCa-2 (3H-thymidine incorporation). Format: cell-based. Particulars: three experiments, five determinations; for Stimulation of growth of MiaPaCa-2: serum free medium, 3H-thymidine incorporation, P<0.01 compared to untreated cells. An excerpt:
(§2) Br. J. Cancer (1992), 66, 483 487 ? […] Somatostatin (SS) is a tetradecapeptide widely distributed throughout the body, being found in high concentrations in the brain, stomach, intestine and pancreas (Reichlin, 1983). Somatostatin exerts inhibitory actions on the cellular func- tions within a variety of tissues including secretion and growth (Konturek et al., 1988; Meyers & Coy, 1980; Schally, 1988). […] It has therefore been proposed that somatostatin may be capable of inhibiting pancreatic tumour growth indirectly via the suppression of secretion of pancreatic trophic hor- mones and/or by direct effects on the tumour itself (Schally et al., 1988; Liebow et al., 1989). […] For somatostatin to impair directly the growth of pancreatic cancer the cells should therefore express receptors for the peptide. The aim of these study was to determine the somatostatin receptor status of two human (MiaPaCa-2 & Panc-1) and a rat (AR42J) pancreatic cancer cell lines. We have also studied the effects of somatostatin-14 and RC-160 on the proliferation of these three cell lines. Materials and methods Cell growth MiaPaCa-2 and Panc-1 are both human ductal pancreatic carcinoma cell lines and were obtained from the European Cell Culture Collection. AR42J is a rat pancreatic acinar tumour cell line and was kindly provided by Dr S. Watson (Cancer Research Campaign Laboratories, Nottingham Uni- versity). MiaPaCa-2 and Panc-l were routinely grown in Dulbecco's Modified Eagle's Medium (DMEM) containing 10% foetal calf serum (ICN Flow, Irvine). AR42J cells were grown in RPMI 1640 containing 10% FCS (ICN Flow, Irvine). The cells were trypsinised and plated out in 96 well plates at 5 x I04 cells ml-' in serum-free (SF) medium for 24 h. After this period of serum starvation the medium was supple- mented with EGF (Sigma, Dorset) or IGF-I (Peninsula, St Helens) with or without SS-14 (Sigma, Dorset) or RC-160 (Peninsula, St Helens). EGF, IGF-1, SS-14 and RC-160 were added at concentrations described in the Results section. The cells were then incubated for 48 h at 37?C. DNA synthesis was assessed for the final 6 h by adding 0.5 liCi 3H-thymi- dine/well. The cells were then collected onto filter mats using a semi-automatic cell harvester (Inotech, Switzerland). Scin- tillation fluid was added to individual filter discs and the cell associated radioactivity counted in a beta counter (Packard 1900CA Tricarb). Binding studies Binding of ['25I-tyr"]Somatostatin (Amersham International) was performed on membranes prepared from the three cell lines. Cells were washed twice with phosphate buffered saline (pH 7.4), then removed from 150 cm2 flasks using a cell scraper. […] The protein content of the suspension was determined using a bicinchoninic acid kit (Pierce, Rockford, USA).
For orientation: Uptake of a labelled nucleoside into DNA is a usual measure of proliferation.

Assay [6] has as its system MiaPaCa-2. Particulars: cited from earlier work. The source says: (§3) Br. J. Cancer (1992), 66, 483 487 ? […] Summary The in vivo administration of somatostatin (SS) or its analogues is capable of suppressing the growth of pancreatic cancer in experimental animals. We examined the effects of SS-14 and its analogue RC-160 on the in vitro growth of ...
Assay [7] relates to rat experimental pancreatic cancer. Particulars: ref Redding et al. (1984); cited from earlier work.
Text: as §3

Assay [8] deals with pancreatic exocrine secretion of protein and bicarbonate. The settings on record: ref Boden et al., 1975; cited from earlier work.
Text: as §3

Assay [9] concerns Panc-1. The settings on record: unstimulated cells, serum-free medium, one concentration; ref Liehr et al., 1990; cited from earlier work.
Text: as §3

In assay [10] the test system is somatostatin receptors on MiaPaCa-2. Particulars: no Kd quoted, no total or non-specific binding curves; ref Hierowski et al. (1985); cited from earlier work.
Text: as §3

For assay [11], the system named is tyrosine phosphatase activity. Particulars: in vitro, MiaPaCa-2; ref Liebow et al., 1989; cited from earlier work.
Text: as §3

Assay [12] deals with somatostatin binding sites in human pancreatic cancer xenograft. The settings on record: ref Singh and colleagues (1991); cited from earlier work.
Text: as §3

Assay [13] relates to EGF receptor. Particulars: ref Hierowski et al., 1985; cited from earlier work.
Text: as §3

Assay [14] has as its system endocrine secretion of cholecystokinin, gastrin and secretin. The settings on record: ref Schally et al., 1978; cited from earlier work.
Text: as §3

Assay [15] has as its system somatostatin receptors in human pancreatic adenocarcinomas. Particulars: 12 fresh adenocarcinomas; ref Reubi et al. (1988); cited from earlier work.
Text: as §3

For assay [16], the system named is hamster experimental pancreatic cancer. The settings on record: ref Redding et al. (1984); cited from earlier work.
Text: as §3

For assay [17], the system named is Panc-1 human ductal pancreatic carcinoma cell line. As to the kind of experiment: Proliferation of Panc-1 (3H-thymidine incorporation). The assay is classed as cell-based. Particulars: 48 h, three experiments, five determinations; for Stimulation of growth of Panc-1: serum free medium, 3H-thymidine incorporation, P<0.01 compared to untreated cells.
Text: as §2

Bridge positions count the residues as written; N and C are the ends. Square brackets hold non-standard residues; d marks the D form. Peptide text beside a SMILES is read from it. Tyr(3-I) = N[C@@H](Cc1ccc(O)c(I)c1)C(=O)O

Turning to `C[C@H](N)C(=O)NCC(=O)N[C@H]1CSSC[C@@H](C(=O)O)NC(=O)[C@H](CO)NC(=O)[C@H]([C@@H](C)O)NC(=O)[C@H](Cc2ccc(O)c(I)c2)NC(=O)[C@H]([C@@H](C)O)NC(=O)[C@H](CCCCN)NC(=O)[C@H](Cc2c[nH]c3ccccc23)NC(=O)[C@H](Cc2ccccc2)NC(=O)[C@H](Cc2ccccc2)NC(=O)[C@H](CC(N)=O)NC(=O)[C@H](CCCCN)NC1=O` [125I-Tyr11 somatostatin] (H-AGCKNFFWKT[Tyr(3-I)]TSC-OH; disulfide 3-14 (inferred); N-terminus and C-terminus assumed), the “Displaceable binding, MiaPaCa-2” value in assay [1] is “not displaceable binding was observed”. The “Displaceable binding, Panc-1” value in assay [2] is on record as “not displaceable binding was observed”. For the same compound, the Bmax in [3] is on record as 2.1 +/- 0.26 pmoles mg-1 protein.

By IC50 is commonly meant the midpoint of a concentration-inhibition curve. Low readings indicate inhibition by little substance, high ones a need for much substance. Turning to `CC(C)[C@@H]1NC(=O)[C@H](CCCCN)NC(=O)[C@@H](Cc2c[nH]c3ccccc23)NC(=O)[C@H](Cc2ccc(O)cc2)NC(=O)[C@@H](NC(=O)[C@H](N)Cc2ccccc2)CSSC[C@@H](C(=O)N[C@@H](Cc2c[nH]c3ccccc23)C(N)=O)NC1=O` [RC-160] (H-[dF]CY[dW]KVCW-NH2; disulfide 2-7), in assay [4] (unlabelled RC-160 10-6 to 10-11 M, 50 mM Tris, 0.2% BSA, filtration), the “Displacement of radiolabelled somatostatin from AR42J membranes” value is given as 95%. This compound had an IC50 in assay [4] (competition, AR42J membranes, non-linear regression) of 0.631 nM.

As to “SS-14: Somatostatin (SS) is a tetradecapeptide; SS-14 from Sigma, Dorset”, the “Effect on DNA synthesis in EGF stimulated MiaPaCa-2 cells” value in assay [5] (EGF 10^-8 M, serum free DMEM, 48 h at 37 C, 3H-thymidine for final 6 h, P>0.05 compared to stimulated cells) was “neither SS-14 nor RC-160 had any effect on DNA synthesis”. The “Effect on DNA synthesis in IGF-1 stimulated MiaPaCa-2 cells” value in [5] (IGF-1 10^-8 M, serum free, 48 h, 3H-thymidine for final 6 h, P>0.05 compared to stimulated cells) is “neither SS-14 nor RC-160 had any effect on DNA synthesis”. Moreover, the “Inhibition of EGF-stimulated growth of MiaPaCa-2” value in assay [6] (in vitro, ref Liebow et al. (1986; 1989)) is given as “all inhibit the EGF- stimulated growth of MiaPaCa-2”. For the same compound, in assay [6] (unstimulated cells, serum-free medium, one concentration, ref Liehr et al., 1990), the “Growth inhibitory effect, MiaPaCa-2” value is listed as “no growth inhibitory effect”. The “Inhibition of rat experimental pancreatic cancer growth” value in assay [7] is “inhibition of both rat and hamster experimental pancreatic cancer growth”. Moreover, the “Inhibition of pancreatic exocrine secretion” value in [8] is “inhibits the pancreatic exocrine secretion of protein and bicarbonate”. For the same compound, the “Growth inhibitory effect, Panc-1” value in assay [9] is recorded as “no growth inhibitory effect”. For the same compound, the “Bmax, MiaPaCa-2” value in assay [10] is reported as 3.6 fmole mg-' protein. The “Promotion of tyrosine phosphatase activity” value in [11] is “promotion of tyrosine phosphatase activity”. Moreover, in assay [12], the “Specific binding sites in human pancreatic cancer xenograft” value is “one of these xenografts expressed specific binding sites”. Further, the “Dephosphorylation of the EGF receptor” value in [13] is reported as “causes the dephosphorylation of the EGF receptor”. Moreover, the “Inhibition of endocrine secretion of cholecystokinin, gastrin and secretin” value in assay [14] is “inhibits the pancreatic exocrine secretion of protein and bicarbonate (Boden et al., 1975) and the endocrine secretion of cholecystokinin, gastrin and secretin”. For the same compound, the “Specific somatostatin receptors in fresh human pancreatic adenocarcinomas” value in [15] is recorded as “none of which contained specific somatostatin receptors”. For the same compound, in assay [16], the “Inhibition of hamster experimental pancreatic cancer growth” value was “inhibition of both rat and hamster experimental pancreatic cancer growth”. The “Effect on DNA synthesis in EGF stimulated Panc-1 cells” value in [17] (EGF 10^-8 M, serum free, 3H-thymidine for final 6 h, P>0.05 compared to stimulated cells) is “neither SS-14 nor RC-160 had any effect on DNA synthesis”. Besides, the “Effect on DNA synthesis in IGF-1 stimulated Panc-1 cells” value in [17] (IGF-1 10^-8 M, serum free, 3H-thymidine for final 6 h, P>0.05 compared to stimulated cells) is “neither SS-14 nor RC-160 had any effect on DNA synthesis”.

Regarding “epidermal growth factor [EGF, epidermal growth factor (Sigma, Dorset)]”, the “Stimulation of growth of MiaPaCa-2” value in assay [5] (48 h) is listed as “stimulated the growth of both cell lines (P<0.01 compared to untreated cells), having a more pronounced effect on MiaPaCa-2”. In addition, the “Stimulation of growth of Panc-1” value in assay [17] is given as “stimulated the growth of both cell lines (P<0.01 compared to untreated cells)”.

Regarding insulin-like growth factor 1 [IGF-1], in assay [5] (48 h), the “Stimulation of growth of MiaPaCa-2” value was “increased the proliferation of the two cell lines (P<0.01 compared to untreated cells)”. In addition, the “Stimulation of growth of Panc-1” value in [17] is “increased the proliferation of the two cell lines (P<0.01 compared to untreated cells)”.
